Source: US4421911A, “Deoxydesmycosin” (priority 1981, dated 1983)
Converted amounts (≈) assume the structure as drawn. Read-outs that look alike come from different tables or passages of the source.

Columns and labels:
Format in all cases: cell-based
[1] = test system: Staphylococcus aureus ATCC6538p; assay: Minimum inhibitory concentration (MIC), Staphylococcus aureus ATCC6538p
[2] = test system: Staphylococcus aureus MS353; assay: Minimum inhibitory concentration (MIC), Staphylococcus aureus MS353
[3] = test system: Staphylococcus aureus MS353AO; assay: Minimum inhibitory concentration (MIC), Staphylococcus aureus MS353AO; details: macrolide resistant strain A group
Text: (§1) The minimum inhibitory concentration (MIC) of the compounds of the present invention is illustrated in Table 1.
(§2) *Macrolide registant strain A group (clinical isolates of erythromycin,
(§3) oleandomycin and 16membered macrolide antibiotics registant strains)

[4] = test system: Staphylococcus aureus 0116; assay: Minimum inhibitory concentration (MIC), Staphylococcus aureus 0116
Text: as §1, §2, §3

[5] = test system: Staphylococcus aureus 0119; assay: Minimum inhibitory concentration (MIC), Staphylococcus aureus 0119
Text: as §1, §2, §3

[6] = test system: Staphylococcus aureus 0127; assay: Minimum inhibitory concentration (MIC), Staphylococcus aureus 0127
Text: as §1, §2, §3

[7] = test system: Streptococcus pyogenes N.Y.5; assay: Minimum inhibitory concentration (MIC), Streptococcus pyogenes N.Y.5
[8] = test system: Streptococcus pyogenes 1022; assay: Minimum inhibitory concentration (MIC), Streptococcus pyogenes 1022
Text: as §1, §2, §3

[9] = Staphylococcus aureus 0116, macrolide resistant strain A group, read-out: MIC
[10] = Staphylococcus aureus 0127, macrolide resistant strain A group, read-out: MIC
[11] = Streptococcus pyogenes 1022, macrolide resistant strain A group, read-out: MIC

SMILES | MIC [1] | MIC [2] | MIC [3] | MIC [4, 9] | MIC ([5]; Staphylococcus aureus, 0119) | MIC [6, 10] | MIC [7] | MIC [8, 11] | MIC ([5]; Staphylococcus aureus 0119, macrolide resistant strain A group, read-out: MIC) | MIC ([6]; Staphylococcus aureus, 0127) | MIC ([4]; Staphylococcus aureus, 0116) | MIC ([8]; Streptococcus pyogenes, 1022)
CCC1OC(=O)CC(O)C(C)C(OC2OC(C)CC(N(C)C)C2O)C(CC=O)CC(C)C(=O)/C=C/C(C)=C/C1COC1OC(C)CC(OC)C1OC (centres unmarked) [R1 = H, R2 = H, 4', 4"-di-deoxy-desmycosin] | 0.4 µg/mL (≈ 0.541 µM) | 0.2 µg/mL (≈ 0.27 µM) | 50 µg/mL (≈ 67.6 µM) | 3.1 µg/mL (≈ 4.19 µM) | 12.5 µg/mL (≈ 16.9 µM) | 12.5 µg/mL (≈ 16.9 µM) | ≤ 0.05 µg/mL | 25 µg/mL (≈ 33.8 µM) |  |  |  | 
CCC1OC(=O)CC(O)C(C)C(OC2OC(C)CC(N(C)C)C2O)C(CC=O)CC(C)C(=O)/C=C/C(C)=C/C1COC1OC(C)C(O)C(OC)C1OC (centres unmarked) [R1 = H, R2 = OH, 4'-deoxy-desmycosin] | 0.8 µg/mL (≈ 1.06 µM) | 0.8 µg/mL (≈ 1.06 µM) | 50 µg/mL (≈ 66.1 µM) | 3.1 µg/mL (≈ 4.1 µM) | 6.3 µg/mL (≈ 8.33 µM) | 12.5 µg/mL (≈ 16.5 µM) | 0.1 µg/mL (≈ 0.132 µM) | 3.1 µg/mL (≈ 4.1 µM) |  |  |  | 
CCC1OC(=O)CC(O)C(C)C(OC2OC(C)C(O)C(N(C)C)C2O)C(CC=O)CC(C)C(=O)/C=C/C(C)=C/C1COC1OC(C)CC(OC)C1OC (centres unmarked) [R1 = OH, R2 = H, 4"-deoxy-desmycosin] | 0.4 µg/mL (≈ 0.529 µM) | 0.4 µg/mL (≈ 0.529 µM) | 6.3 µg/mL (≈ 8.33 µM) | 1.6 µg/mL (≈ 2.12 µM) |  |  | ≤ 0.05 µg/mL | 3.1 µg/mL (≈ 4.1 µM) | 1.6 µg/mL (≈ 2.12 µM) | 6.3 µg/mL (≈ 8.33 µM) |  | 
CC[C@H]1OC(=O)C[C@@H](O)[C@H](C)[C@@H](O[C@@H]2O[C@H](C)[C@@H](O[C@H]3C[C@@](C)(O)[C@@H](O)[C@H](C)O3)[C@H](N(C)C)[C@H]2O)[C@@H](CC=O)C[C@@H](C)C(=O)/C=C/C(C)=C/[C@@H]1CO[C@@H]1O[C@H](C)[C@@H](O)[C@@H](OC)[C@H]1OC [Tylosin, tylosin, reference compound] | 0.8 µg/mL (≈ 0.873 µM) | 1.6 µg/mL (≈ 1.75 µM) | > 100 µg/mL |  | > 100 µg/mL |  | 0.2 µg/mL (≈ 0.218 µM) |  |  | > 100 µg/mL | > 100 µg/mL | > 100 µg/mL
